Where two headings read alike, the source gives them in different places.
Legend:
[1] = Cell viability test (WST-1) in Min6 cells; assay type: cell-based, mouse; settings: mouse
Procedure: (§1) (A) Effect of drug candidates on insulin secretion in β-cells. Min6 cells were incubated in serum-free oxygen-saturated Krebs-Ringer bicarbonate (KRB) buffer containing high glucose (16.7 mM), CCF642 and drug candidates for 30 min. The supernatants were collected for insulin ELISA assay. (B) Min6 cells were incubated with PBS, CCF642 and drug candidates, respectively, for 24 h. Following PBS washing, WST-1 was added into each well for additional 20 min incubation.
(§2) Min6 cells were cultured at 37° C. in complete medium. Cell cytotoxicity was determined using WST-1 (4-[3-(4-Iodophenyl)-2-(4-nitrophenyl)-2H-5-tetrazolio]-1,3-benzene Disulfonate) according to the manutkturet's guidelines. Briefly, the cells were grown in a […] containing complete medium in the presence of the indicated compounds for 24 h. Following PBS washing, WST-1 was added into each well for additional 20 min incubation. After removing the medium, the cells in the plate were measured with a SpectraMax i3x reader at 450 nm.

PDIA4 = target: T1, PDIA4 (Homo sapiens, UniProt P13667); assay: biochemical;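 further: enzymatic activity of PDIA4 read as absorbance at 595 nm, inhibition given as percent decrease relative to vehicle-treated control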
T1 sequence (P13667 21-645): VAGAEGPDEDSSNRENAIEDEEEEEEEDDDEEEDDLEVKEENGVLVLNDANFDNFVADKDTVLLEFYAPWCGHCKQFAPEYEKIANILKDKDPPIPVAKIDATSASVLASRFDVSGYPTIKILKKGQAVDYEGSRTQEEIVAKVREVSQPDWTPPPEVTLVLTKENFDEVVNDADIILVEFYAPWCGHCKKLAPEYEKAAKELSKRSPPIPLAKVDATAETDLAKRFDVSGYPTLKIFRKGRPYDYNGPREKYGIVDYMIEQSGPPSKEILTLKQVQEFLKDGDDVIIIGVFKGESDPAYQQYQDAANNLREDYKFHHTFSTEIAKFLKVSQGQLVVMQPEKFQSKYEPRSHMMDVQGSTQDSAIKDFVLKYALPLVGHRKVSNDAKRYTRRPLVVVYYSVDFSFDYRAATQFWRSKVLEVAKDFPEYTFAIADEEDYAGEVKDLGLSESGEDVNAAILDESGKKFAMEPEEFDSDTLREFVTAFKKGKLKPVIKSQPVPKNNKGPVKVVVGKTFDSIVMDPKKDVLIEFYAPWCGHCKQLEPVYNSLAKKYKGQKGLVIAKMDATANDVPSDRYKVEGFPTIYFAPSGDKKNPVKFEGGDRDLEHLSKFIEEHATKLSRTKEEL
Procedure: Recombinant PDI proteins PDIA4 (23 pM) was incubated with insulin (0.2 mM) and DTT (0.1 mM) in the presence of vehicle and compounds at the indicated doses for 30 min at 25° C. The mixture was, measured using a SpectraMax i3x reader at 595 nm based on the manufacturer's instructions (Molecular device, CA, USA). Inhibition of the enzymatic activity PDIA4 is calculated by the formula, 100%×(OD595 of vehicle−OD595 of CP)/(OD595 of vehicle) as published previously.

Min6 cells [2] = assay: Glucose-stimulated insulin secretion in Min6 cells (insulin ELISA); assay type: cell-based, mouse; settings: for insulin secretion in β-cells, in words: Min6 β-cells
Procedure: as §1
Min6 cells were grown in complete Dulbecco's modified Eagle medium (DMEM) medium containing 10% fetal bovine serum, 100 units/ml penicillin and 100 µg/ml streptomycin in a 5% CO2 incubator in the presence of 3.3 mM glucose unless indicated otherwise. Min6 cells were pre-incubated in serum-free oxygen-saturated Krebs-Ringer bicarbonate (KRB) buffer containing 3.3 mM glucose at 37° C. for 30 min. The cells (7.5×10^4) were then incubated with KRB buffer containing high glucose (16.7 mM) or low glucose (3.3 mM) for an additional 30 min. The supernatants were collected for insulin ELISA assay.

Min6 cells [3] = assay: Cell viability test (WST-1) in Min6 cells; assay type: cell-based, mouse
Procedure: as §1, §2

db/db mice = assay: Anti-diabetes effect in db/db mice (blood glucose); assay type: in vivo, mouse; settings: CPD 8 2.5 mg/kg, metformin 60 mg/kg; for fasting blood glucose (FBG) / postprandial blood glucose (PBG): sitagliptin 30 mg/kg
Procedure: (A-B) New-onset diabetes, Lepr^db/db mice, are grouped and treated with PBS vehicle (CTR), sitagliptin (STG, 30 Mg/kg), CPD8 (2.5 mg/kg), and a combination of CPD8 (2.5 mg/kg) and metformin […]) (CPD8+Met) for the indicated time. Fasting blood glucose (FBG (A)) and postprandial blood glucose (PBG (B)) of the mice were monitored. The value (n) is number of mice indicated in parentheses.
Moreover, we examined the in vivo anti-diabetes effect of CPD 8, one of drug candidates for Pdia4 inhibition, in db/db mice, a mouse model of type 2 diabetes. […] PBG in db/db mice (FIG. 4B).

[4] = Table 5, 24 h, WST-1, read-out: CC50
[5] = Min6, a mouse β-cells, read-out: EC50 values, insulin-releasing action
[6] = Mus musculus, 0.5 h, Table 5, insulin secretion, Min6 cells, high glucose (16.7 mM), 30 min, read-out: EC50

What does the source list for `C#CC(=O)Nc1cc(OC)c(OCCCN(C(=O)C#C)C(=O)c2cnco2)cc1C(=O)OC` [58v, methyl 4-methoxy-2-propiolamido-5-(3-(N-propioloyloxazole-5-carboxamido)propoxy)benzoate]?
CC50 at 24 h [1, 4]: > 100000 nM; CC50 at 24 h ([1]; read-out: CC50 values): > 100000 nM; IC50 (PDIA4): 300 nM; EC50 (Min6 cells [2]; [5]): 5 nM; insulin secretion in β-cells, in words (Min6 cells [2]): could augment insulin secretion; EC50 (Min6 cells [2]; [6]): 5 nM; SI (CC50/EC50) (Min6 cells [2]; Table 5, Min6 cells): >20000

What does the source list for `COc1ccc(N2C(=O)/C(=C\c3ccc([N+](=O)[O-])s3)SC2=S)cc1` [CCF642, reference compound]?
CC50 (Min6 cells [3]; [4]): 23900 nM; CC50 (Min6 cells [3]; read-out: CC50 values): 23900 nM; EC50 (Min6 cells [2]; [5]): 250 nM; insulin secretion in β-cells, in words (Min6 cells [2]): could augment insulin secretion; SI (CC50/EC50) (Min6 cells [2]; Table 5, Min6 cells): 95.6

Which results are given for `C#CC(=O)Nc1cc(OC)c(OC)cc1C(=O)O` [CPD 8, 4,5-dimethoxy-2-propiolamidobenzoic acid]?
CC50 at 24 h [1, 4]: > 100000 nM; CC50 at 24 h ([1]; read-out: CC50 values): > 100000 nM; IC50 (PDIA4): 4000 nM; EC50 (Min6 cells [2]; [5]): 60 nM; insulin secretion in β-cells, in words (Min6 cells [2]): could augment insulin secretion; EC50 (Min6 cells [2]; [6]): 60 nM; SI (CC50/EC50) (Min6 cells [2]; Table 5, Min6 cells): >1666.7; reversal of type 2 diabetes (db/db mice): can reverse type 2 diabetes; fasting blood glucose (FBG) (db/db mice): significantly decreased; postprandial blood glucose (PBG) (db/db mice): significantly decreased

Which results are given for `CC#CC#CC#CC#CCCC(CO)O[C@@H]1O[C@H](CO)[C@@H](O)[C@H](O)[C@H]1O` (stereo partly shown) [CPD P1, cytopiloyne, reference compound]?
CC50 at 24 h [1, 4]: > 100000 nM; CC50 at 24 h ([1]; read-out: CC50 values): > 100000 nM; IC50 (PDIA4): 210000 nM; EC50 (Min6 cells [2]; [5]): 1550 nM; insulin secretion in β-cells, in words (Min6 cells [2]): could augment insulin secretion; EC50 (Min6 cells [2]; [6]): 1550 nM; SI (CC50/EC50) (Min6 cells [2]; Table 5, Min6 cells): >64.5

Which results are given for `N[C@@H](CC(=O)N1CCn2c(nnc2C(F)(F)F)C1)Cc1cc(F)c(F)cc1F` [sitagliptin, reference compound]?
fasting blood glucose (FBG) (db/db mice): significantly reduced; postprandial blood glucose (PBG) (db/db mice): significantly reduced
